Measured values published in patent US9475328B2, “Developer for thermally responsive record materials” (Valspar Sourcing, Inc., priority 2012, dated 2016).

These compounds were tested on MCF-7, clone WS8 cells (assay: MCF-7 cell proliferation assay of estrogenic activity). Settings: logarithmic (base 10) Relative Proliferative Effect vs 17-beta estradiol; cell proliferation measured as total DNA; values 'expected or measured'.
Format: cell-based, human
Source text: The MCF-7 assay is a useful test for assessing whether a polyhydric phenol compound is appreciably non-estrogenic. The MCF-7 assay uses MCF-7, clone WS8 cells to measure whether and to what extent a substance induces cell proliferation via estrogen receptor (ER)-mediated pathways. The method is described in “Test Method Nomination: MCF-7 Cell Proliferation Assay of Estrogenic Activity” submitted for validation by CertiChem, Inc. to the National Toxicology Program Interagency Center for the Evaluation of Alternative Toxicological Methods (NICEATM) on Jan. 19, 2006 (available online at http://iccvam.niehs.nih.gov/methods/endocrine/endodocs/SubmDoc.pdf).
A brief summary of the method of the aforementioned MCF-7 assay is provided below. MCF-7, clone WS8 cells are maintained at 37° C. in RMPI (Roswell Park Memorial Institute medium) containing Phenol Red (e.g., GIBCO Catalog Number 11875119) and supplemented with the indicated additives for routine culture. […] At the end of the 7 day exposure to the test chemical, the media is removed, the wells are washed once with 0.2 ml of HBSS (Hanks' Balanced Salt Solution), and then assayed to quantify amounts of DNA per well using a micro-plate modification of the Burton diphenylamine (DPA) assay, which is used to calculate the level of cell proliferation. […]

Compound | Log RPE
Oc1ccc(Cc2ccc(O)cc2)cc1 [Bisphenol F] | −2
C[C@]12CC[C@@H]3c4ccc(O)cc4CC[C@H]3[C@@H]1CC[C@@H]2O [17β-estradiol] | 2.00

The compounds below were run against T1, human estrogen receptor (Homo sapiens, UniProt P03372) (assay: suitable in vitro assay whose results correlate with the MCF-7 assay (estrogenic activity)). Settings: in vitro assay correlated to MCF-7 assay through common reference compounds.
T1 sequence (P03372 1-595): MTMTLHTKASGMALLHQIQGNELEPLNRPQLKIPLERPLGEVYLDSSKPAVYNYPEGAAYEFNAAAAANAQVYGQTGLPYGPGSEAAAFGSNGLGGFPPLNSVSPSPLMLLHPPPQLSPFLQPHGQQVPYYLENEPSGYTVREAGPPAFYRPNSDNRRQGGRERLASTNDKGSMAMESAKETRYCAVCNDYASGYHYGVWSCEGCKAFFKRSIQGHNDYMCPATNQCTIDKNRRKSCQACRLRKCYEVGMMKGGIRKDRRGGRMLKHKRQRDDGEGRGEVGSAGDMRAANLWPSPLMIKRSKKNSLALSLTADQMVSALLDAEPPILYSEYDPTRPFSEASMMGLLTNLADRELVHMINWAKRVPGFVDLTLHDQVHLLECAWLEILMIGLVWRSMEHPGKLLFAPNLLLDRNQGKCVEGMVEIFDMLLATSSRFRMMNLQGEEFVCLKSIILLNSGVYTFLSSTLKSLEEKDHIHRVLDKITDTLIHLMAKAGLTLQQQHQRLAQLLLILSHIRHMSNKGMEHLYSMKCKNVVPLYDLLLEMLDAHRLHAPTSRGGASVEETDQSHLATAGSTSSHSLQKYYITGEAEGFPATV
Format: cell-based

Compound | estrogenic activity
CC(C)(C)c1cc(Cc2cc(C(C)(C)C)c(O)c(C(C)(C)C)c2)cc(C(C)(C)C)c1O [Structure 8, 4,4′-methylenebis(2,6-di-t-butylphenol)] | do not exhibit appreciable estrogenic activity
Cc1cc(Cc2cc(C)cc(C(C)(C)C)c2O)c(O)c(C(C)(C)C)c1 [Structure 9] | do not exhibit appreciable estrogenic activity
Cc1cc(Cc2cc(C)c(O)c(C)c2)cc(C)c1O [Structure 6, 4,4′-methylenebis(2,6-dimethylphenol)] | do not exhibit appreciable estrogenic activity
CCCC(c1cc(C(C)(C)C)c(O)cc1C)c1cc(C(C)(C)C)c(O)cc1C [Structure 7, 4,4′-butylidenebis(2-t-butyl-5-methylphenol)] | do not exhibit appreciable estrogenic activity
CC(C)(C)c1cc(O)c(C(C)(C)C)cc1O [Structure 12, 2,5-di-t-butylhydroquinone] | do not exhibit appreciable estrogenic activity
